{
  "source": "patent US20220072061A1",
  "about": "“SUBSTANCE FOR TREATMENT OR PREVENTION OF DISEASES, METHOD FOR DESIGNING THE SAME, AND METHOD FOR PREPARING THE SAME” (priority 2018, published 2022)",
  "key": {"[1]": {"test_system": "patients with menoxenia", "assay": "Clinical study against menoxenia", "type": "in vivo, human", "text": "1. Clinical data: 60 cases (in total) of outpatients and inpatients with menoxenia were enrolled, and randomly divided into a treatment group of 30 patients and a control group of 30 patients. There was no significant difference between the two groups in clinical data.\n2. Diagnosis criteria: Symptoms include disorders in the menstrual cycle and menstrual period, excessive or insufficient bleeding during menstruation, and abdominal pain before and after menstruation.\n3. […] Patients in the control group were orally given clomifene citrate capsules (NMPA Approval No. H31021107), 50 mg/day, started on day 5 since menstruation, for 2 consecutive months.\n4. Efficacy evaluation criteria: The efficacy evaluation is based on the relevant standards in Guiding Principles for Clinical Research of New Chinese Medicines.\n(§1) Total effective rate=cured rate+effective rate."}, "[2]": {"test_system": "patients with depression", "assay": "Clinical study against depression", "type": "in vivo, human", "description": "1. Clinical data: 60 cases (in total) of outpatients and inpatients with depression were enrolled, and randomly divided into a treatment group of 30 patients and a control group of 30 patients. There was no significant difference between the two groups in clinical data.\n2. Diagnosis criteria: The diagnosis criteria for depression from The Diagnostic and Statistical Manual of Mental Disorders.\n3. […] Patients in the control group were treated with fluoxetine, the initial and treatment doses both being 20 mg/day, for a course of 4 weeks.\n4. Efficacy evaluation criteria: After 4 weeks of treatment, the patients were scored by a psychiatrist based on the Hamilton Depression Rating Scale HAMD-17. “Cured” means a HAMD-17 total score <7; “effective” means a HAMD-17 total score of 8-17; and “ineffective” means a HAMD-17 total score>17.\nas §1"}, "[3]": {"test_system": "patients with allergic rhinitis", "assay": "Clinical application trial for treatment of allergic rhinitis", "type": "in vivo, human", "description": "There was no significant difference between the two groups in clinical data and conditions. […] Diagnosis criteria: 2 or more clinical symptoms such as sneezing, clear water-like nasal discharge, nasal congestion, and nasal itching, appearing continuously or continually for 1 hour or more every day. It may be accompanied by eye symptoms such as eye itching and conjunctival hyperemia. Common signs often include pale nasal mucosa, edema, and watery nasal discharge. Positive in the allergen skin prick test. 3. […] 4. […] Total effective rate=cured rate+effective rate."}, "[4]": {"test_system": "patients with urticaria", "assay": "Clinical study against urticaria", "type": "in vivo, human", "description": "1. […]. There was no significant difference between the two groups in clinical data.\n3. […] The patients in the control group orally took loratadine 5 mg per time, once day, for 30 days.\n(§2) 4. […] Total effective rate=cured rate+markedly effective rate+effective rate."}, "[5]": {"test_system": "patients with ankylosing spondylitis", "assay": "Clinical study in patients with ankylosing spondylitis", "type": "in vivo, human", "settings": "number of patients (14 treatment, 13 control); after 1 month", "text": "1. […] 2. […] 3. […] 4. Efficacy evaluation criteria:"}, "[6]": {"test_system": "hypertensive patients", "assay": "Clinical study against hypertension", "settings": "human, in vivo", "description": "1. Clinical data: In this example, totally 46 hypertensive patients were treated and observed clinically, including 25 males and 21 females, 18-75 years old, with a course of disease of 0.5 to 30 years, who were randomly divided into a treatment group of 23 patients and a control group of 23 patients. There was no significant difference between the two groups in clinical data.\n2. Diagnosis criteria: According to the Guidelines for Diagnosis of Hypertension in China (2010), hypertension can be diagnosed if the systolic pressure≥140 mmHg and/or the diastolic pressure≥90 mmHg. Grade 1 hypertension: systolic pressure 140 to 159 mmHg and/or diastolic pressure 90 to 99 mmHg; Grade 2 hypertension: systolic pressure 160 to 179 mmHg and/or diastolic pressure 100 to 109 mmHg; Grade 3 hypertension: systolic pressure≥180 mmHg and/or diastolic pressure≥110 mmHg.\n3. […] Patients in the control group orally took Levamlodipine Beslate and losartan potassium tablets, 3 times a day under supervision of a physician, and the dose was maintained for 3 months or more.\nas §2"}, "[7]": {"settings": "number of patients of 30, allergic rhinitis"}, "[8]": {"settings": "number of patients of 28, chronic urticaria"}},
  "note": "Where a name gives a salt, the structure may show the parent alone.",
  "data": [
    {"compound": "CCN(CC)CCOc1ccc(C(=C(Cl)c2ccccc2)c2ccccc2)cc1", "note": "[clomifene citrate capsules, clomifene citrate]", "values": [
      {"measurement": "Total effective rate (%)", "setting": "[1]; after treatment", "result": 66.67, "unit": "%"},
      {"measurement": "Cured", "setting": "[1]; number of patients of 30", "result": 0},
      {"measurement": "Effective", "setting": "[1]; number of patients of 30", "result": 10},
      {"measurement": "Markedly effective", "setting": "[1]; number of patients of 30", "result": 10}
    ]},
    {"compound": "CNCCC(Oc1ccc(C(F)(F)F)cc1)c1ccccc1", "note": "(centres unmarked) [fluoxetine]", "values": [
      {"measurement": "Total effective rate (%)", "setting": "[2]; cured rate+effective rate, depression, after 4 weeks", "result": 76.67, "unit": "%"},
      {"measurement": "Cured", "setting": "[2]; number of patients of 30, HAMD-17 total score <7 after 4 weeks", "result": 9},
      {"measurement": "Ineffective", "setting": "[2]; number of patients of 30, HAMD-17 total score >17 after 4 weeks", "result": 7},
      {"measurement": "Effective", "setting": "[2]; number of patients of 30, HAMD-17 total score of 8-17 after 4 weeks", "result": 14}
    ]},
    {"compound": "CCOC(=O)N1CCC(=C2c3ccc(Cl)cc3CCc3cccnc32)CC1", "note": "[loratadine]", "values": [
      {"measurement": "recurrence", "setting": "[3]; 6-month follow-up / after drug discontinuance", "result": "allergic symptoms appeared after contact with allergens after drug discontinuance"},
      {"measurement": "drug adverse reaction or drug dependence", "setting": "[3]; during the treatment, of 30 patients", "result": 5, "unit": "cases"},
      {"measurement": "Effective", "setting": "[3]; [7]", "result": 20},
      {"measurement": "Ineffective", "setting": "[3]; [7]", "result": 10},
      {"measurement": "Cured", "setting": "[3]; number of patients of 30, allergic rhinitis, no recurrence for 60 days", "result": 0},
      {"measurement": "Total effective rate (%)", "setting": "[4]; cured rate+markedly effective rate+effective rate, chronic urticaria", "result": 53.57, "unit": "%"},
      {"measurement": "Cured", "setting": "[4]; [8]", "result": 0},
      {"measurement": "Ineffective", "setting": "[4]; [8]", "result": 13},
      {"measurement": "Effective", "setting": "[4]; number of patients of 28, wheal subsided by 50% to 80%", "result": 6},
      {"measurement": "Markedly effective", "setting": "[4]; number of patients of 28, wheal subsided by 80% or more", "result": 9}
    ]},
    {"compound": "O=C(O)c1cc(/N=N/c2ccc(S(=O)(=O)Nc3ccccn3)cc2)ccc1O", "note": "[sulfasalazine enteric tablets, sulfasalazine]", "values": [
      {"measurement": "Effective", "setting": "[5]", "result": 5},
      {"measurement": "Ineffective", "setting": "[5]", "result": 6},
      {"measurement": "Markedly effective", "setting": "[5]", "result": 2}
    ]},
    {"compound": "Levamlodipine Beslate and losartan potassium", "values": [
      {"measurement": "adverse drug reactions", "setting": "[6]", "result": 6, "unit": "cases"},
      {"measurement": "drug dependence", "setting": "[6]", "result": 4, "unit": "cases"}
    ]}
  ]
}
